# Test results: publication PMC12526154, “Bioactive Compounds Discovery from French Guiana Plant Extracts Through Antitubercular Screening and Molecular Networking” (Plants, 2025)
# “Also recorded” adds a separate entry of the source. Like-named read-outs stand apart in the source and are kept apart here.
# Assays:
# [1] = tested on: Mtb H37Rv; details: cited from earlier work; for MIC90 / MIC (H37Rv): previously reported
# [2] = tested on: Mycobacterium smegmatis; set-up: method as in earlier work; details: ref 33 (Van Puyvelde et al.); cited from earlier work
# [3] = tested on: Mtb H37Ra strain (ATCC 25177); experiment: Broth microdilution growth inhibition assay against Mtb H37Ra; assay type: cell-based, Mycobacterium tuberculosis; details: for antitubercular activity (in words): Mtb H37Ra; for MIC90: 90% inhibition of Mtb H37Ra growth
# [4] = in vitro; details: human, CC50, BEAS-2B, 24 h exposure, resazurin; mean ± SD (n = 3)
# [5] = Resazurin reduction cytotoxicity assay, IMR90; details: human, IMR-90 fetal lung fibroblasts
# [6] = Resazurin reduction cytotoxicity assay, HepG2; details: human, HepG2 hepatocellular carcinoma cells
# [7] = Resazurin reduction cytotoxicity assay, Raw264.7; details: mouse
# [8] = Resazurin reduction cytotoxicity assay, THP-1 macrophages; details: human
# [9] = tested on: HepG2 cells; experiment: Resazurin reduction cytotoxicity assay, HepG2; details: HepG2, 24 h exposure, resazurin; mean ± SD (n = 3)
# [10] = tested on: Mtb H37Ra; details: cited from earlier work
# [11] = Mycobacterium tuberculosis, pure commercial compounds, 50% inhibition of Mtb H37Ra growth, mean ± SD, read-out: MIC50
# [12] = Mycobacterium tuberculosis, pure commercial compounds, mean ± SD, read-out: MIC90
# [13] = pure commercial compounds, 50% inhibition of Mtb H37Ra growth, mean ± SD, read-out: MIC50
# [14] = pure commercial compounds, 50% inhibition of Mtb H37Ra growth, mean ± SD
# [15] = pure commercial compounds, mean ± SD
structure (smiles),measurement,setting,value
"CC(C)C1=C(O)C(=O)C2=C(C=C[C@H]3C(C)(C)CCC[C@]23C)C1=O [6,7-dehydroroyleanone]",MIC90,"[1]; Mtb H37Rv, ref 10 (Baldin et al.)",31.2 µg/mL
"C=C[C@]1(C)C=C2[C@H](O)C[C@@H]3C(C)(CCC[C@@]3(C)CO)[C@H]2CC1 (stereo partly drawn) [8(14),15-sandaracopimaradiene-7α,18diol]",MIC90,[2],12 µg/mL
C=C1CC[C@H]2O[C@]2(C)CC[C@@H]2[C@@H]1CC2(C)C [Caryophyllene oxide],antitubercular activity (in words),[3],very low to no activity; also recorded: inactive
same,MIC50,[3]; [11],> 200 µM
same,MIC90,[3]; [12],> 200 µM
same,MIC50,[3]; [13],> 200 µM
COc1ccc(-c2oc3cc(OC)c(OC)c(O)c3c(=O)c2OC)cc1O [Casticin],MIC50,[3]; [11],> 200 µM
same,MIC90,[3]; [12],> 200 µM
same,MIC50,[3]; [13],>200 µM
COc1cc2oc(-c3ccc(O)c(O)c3)cc(=O)c2c(O)c1OC [Cirsiliol],MIC50,[3]; [11],80.3 µM
same,MIC90,[3]; [12],> 200 µM
same,MIC50,[3]; [14],80.3 ± 43 µM
same,MIC90,"[3]; pure commercial compounds, mean ± SD, read-out: MIC90",>200 µM
same,CC50,[4],> 250 µM
same,CC50 at 24 h,[5],108 ± 44.1 µM
same,CC50 at 24 h,[6],> 250 µM
same,CC50 at 24 h,[7]; Raw264.7 macrophage cells,71.2 ± 44.1 µM
same,CC50 at 24 h,[8],11.2 ± 2.7 µM
"CC[C@@H](CO)NCCN[C@@H](CC)CO [Ethambutol, reference compound]",MIC50,[3]; [11],10.3 ± 4 µM
same,MIC90,[3]; [12],17.3 ± 0.96 µM
COc1c(O)cc2oc(-c3ccc(O)cc3)cc(=O)c2c1O [Hispidulin],MIC50,[3]; [11],54.8 µM
same,MIC90,[3]; [12],162 µM
same,MIC50,[3]; [14],54.8 ± 25.6 µM
same,MIC90,[3]; [15],162 ± 75 µM
same,CC50,[4],> 250 µM
same,CC50 at 24 h,[7],227 ± 36.7 µM
same,CC50 at 24 h,[8],21.1 ± 14.5 µM
"NC[C@H]1O[C@H](O[C@H]2[C@H](O)[C@@H](O[C@H]3O[C@H](CO)[C@@H](O)[C@H](N)[C@H]3O)[C@H](N)C[C@@H]2N)[C@H](O)[C@@H](O)[C@@H]1O [Kanamycin, reference compound]",MIC50,[3]; [14],3.3 ± 0.40 µM
same,MIC90,[3]; [15],7.5 ± 1.7 µM
CC1(C)C[C@H](O)C[C@@]2(C)OC(=O)C=C12 [Loliolide],antitubercular activity (in words),[3],inactive
same,MIC50,[3]; [11],> 200 µM
same,MIC90,[3]; [12],> 200 µM
same,MIC50,[3]; [13],> 200 µM
O=c1cc(-c2ccc(O)c(O)c2)oc2cc(O)cc(O)c12 [Luteolin],MIC90 / MIC (H37Rv),[1]; Mtb H37Rv,78.12 µg/mL
COc1cc(C2c3c(cc(OC)c(O)c3OC)CC(CO)C2CO)cc(OC)c1O (stereo not drawn) [Lyoniresinol],antitubercular activity (in words),[3],inactive
same,MIC50,[3]; [11],> 200 µM
same,MIC90,[3]; [12],> 200 µM
same,MIC50,[3]; [13],> 200 µM
C=Cc1c(C)c2cc3nc(c4c5[nH]c(cc6nc(cc1[nH]2)C(C)=C6CC)c(C)c5C(=O)[C@@H]4C(=O)OC)[C@@H](CCC(=O)O)[C@@H]3C [Pheophorbide A],MIC50,[3]; [11],10.5 ± 5 µM
same,MIC90,[3]; [12],17 ± 7.6 µM
same,MIC50,[3]; [13],10.5 µM
same,CC50,[4],~4.9 µM
same,CC50 at 24 h,[5],~11.5 µM
same,CC50 at 24 h,[6],> 84.3 µM
same,CC50,[9],no cytotoxicity
same,CC50 at 24 h,[7]; Raw264.7 macrophage cells,20.9 ± 6.5 µM
same,CC50 at 24 h,[8],1.4 ± 0.8 µM
O=c1c(O)c(-c2ccc(O)c(O)c2)oc2cc(O)cc(O)c12 [Quercetin],MIC90,[1]; H37Rv,6.25 µg/mL
C/C1=C\CC(C)(C)/C=C/C(=O)/C(C)=C/CC1 [Zerumbone],antitubercular activity (in words),[3],very low to no activity; also recorded: inactive
same,MIC50,[3]; Mycobacterium tuberculosis,> 200 µM
same,MIC90,[3]; [12],> 200 µM
same,MIC50,[3]; [13],>200 µM
same,CC50,[4],149 ± 43.2 µM
same,CC50 at 24 h,[5],79.8 ± 48.7 µM
same,CC50 at 24 h,[6],> 250 µM
same,CC50 at 24 h,[7]; Raw264.7 macrophage cells,44.5 ± 3.5 µM
same,CC50 at 24 h,[8],51.6 ± 31.6 µM
COc1ccc(-c2coc3cc(O)c(OC)cc3c2=O)cc1 [afrormosin],MIC90,[10],50 µg/mL
O=c1cc(-c2ccc(O)cc2)oc2cc(O)cc(O)c12 [apigenin],MIC90 / MIC (H37Rv),[1]; Mtb H37Rv,70 µg/mL
COc1ccc(-c2coc3cc(O)ccc3c2=O)cc1 [formononetin],MIC90,[10],25 µg/mL
O=C1CC(c2ccc(O)cc2)Oc2cc(O)ccc21 (stereo not drawn) [liquitirigenin],MIC (H37Ra),[10]; previously reported MIC90,25 µg/mL
CC(C)=CCC[C@](C)(O)[C@@H]1CC=C(C)CC1 [α-bisabolol],MIC50,[3]; Mycobacterium tuberculosis,> 200 µM
same,MIC90,[3]; [12],> 200 µM
same,MIC50,[3]; [13],>200 µM
same,CC50,[4],> 250 µM
same,CC50 at 24 h,[5],> 250 µM
same,CC50 at 24 h,[6],> 250 µM
same,CC50 at 24 h,[7]; Raw264.7 macrophage cells,174 ± 26.2 µM
same,CC50 at 24 h,[8]; THP-1-derived macrophages (PMA-differentiated),> 250 µM
